Laboratory results taken from patent US7470669B2, “Isolated polypeptide comprising a leptin fragment” (Serono Genetics Institute, S.A., priority 1999, dated 2008).

Legend:
[1] = tested on: lipase; assay: Postheparin lipolytic activity in db^Pas/db^Pas mice; format: in vivo, mouse; settings: 50 μg/animal, t=2 h after test meal
Description: FIG. 12 contains a Table that presents results showing the effect of test meal with and without leptin injection on postheparin lipolytic activity in db^Pas/db^Pas mice. Animals were gavaged with the test-meal and injected at the same time with 50 μg leptin or physiological saline as described previously (t=0 h). After 1 h, the mice were injected with heparin and blood samples were taken at the peak of postprandial triglyceridemia (t=2 h). Lipase activity was measured in the postheparin plasma as described in the Examples section herein, and is reported here as the mean±SEM (n=3 animals for each condition; ns=not significant).
Mice were gavage-fed and injected with leptin or control solutions as described above. At t=1 h, the mice were injected subcutaneously with heparin (100 IU/kg body weight). At t=2 h, the animals were bled and the plasma was immediately separated by centrifugation. Lipase activity was determined according to Iverius and Brunzell (1985) using 20% Lipoven (Fresenius France Pharma, Louviers, France) as the source of TG. The assay was performed using 25 μL postheparin plasma in 0.15 M NaCl (200 μL total volume), and in the presence of 10 μL heat-inactivated (56° C., 30 min) human plasma as a source of apoC's. Before and at the end of the incubation, FFA concentrations were determined using an enzymatic kit.

[2] = tested on: rat LSR; assay: Ligand blot of 125I-leptin on partially purified rat LSR; format: binding; settings: 200 ng/mL 125I-leptin
Description: Aliquots (72 μg) of partially purified rat liver LSR were separated on a 4%-12% SDS-gradient polyacrylamide gel, and transferred to nitrocellulose as described previously (Yen F. T., Masson M., Clossais-Besnard N., Andre P., Grosset J. M., Bougueleret L., Dumas J. B., Guerassimenko, O., and Bihain B. E. (1999). J Biol Chem 274, 13390-13398) a gel strip stained with Coomassie blue is shown in lane 1. The nitrocellulose strips were washed, blocked, and incubated with anti-rat LSR protein antiserum (1:1000 dilution) (lane 2), or with 200 ng/mL ^125I-leptin (lane 3). The strips were washed and bands were detected as described herein. Image analysis of lane 3 was performed on a Phosphorimager (Molecular Dynamics).
Partially purified rat LSR (240 kDa band complex) was obtained as described previously (Yen F. T., Masson M., Clossais-Besnard N., Andre P., Grosset J. M., Bougueleret L., […] Dumas J. B., Guerassimenko, O., and Bihain B. E. (1999). J Biol Chem 274, 13390-13398.) The band was separated on non-denaturing 4-12% gradient SDS polyacrylamide gel, and was transferred to nitrocellulose by semi-dry transfer (Biorad, 18 V, […]). […]

[3] = tested on: LSR; assay: 125I-leptin degradation in PLC cells; format: cell-based, human; settings: PLC cells, 2 h incubation
[4] = tested on: LSR; assay: 125I-chylomicron binding to primary rat hepatocytes; format: cell-based; settings: 20 ng/mL leptin with 0.5 mM oleate
Description: FIGS. 6A, 6B, and 6C show the effect of leptin on ^125I-LDL and ^125I-chylomicron binding to LSR in primary cultures of rat hepatocytes. For FIG. 6A, primary cultures of rat hepatocytes (48 hours after plating) were incubated at 37° C. for 30 min in the absence (□) or presence (▪) of 50 ng/mL leptin in Buffer A, followed by a 20 min incubation at 37° C. with 0.5 mM oleate. The cells were then washed with ice-cold PBS, precooled for 10 min, and then incubated for 1 h at 4° C. with increasing concentrations of ^125I-LDL in Buffer A. Cells were washed, were lysed in 0.1 N NaOH and were counted for radioactivity. Results are shown as the mean of duplicate determinations. For FIG. 6B, primary cultures of rat hepatocytes were incubated at 37° C. for 30 min with or without 20 ng/mL leptin followed by incubation at 37° C. for 4 h with 6 μg protein/mL ^125I-chylomicrons in the absence or presence of 0.5 mM oleate in Buffer A. The cells were then washed and the ^125I-chylomicrons bound to the cell surface were released into the media by incubation with 10 mM suramin. The media was recovered and the radioactivity was measured. Results are shown as the mean±SD of six determinations. […] The amount of ^125I-chylomicrons bound was determined, and results are shown as means±SD of triplicate (irrelevant) or quadruplicate (anti-LSR) determinations. […]

binding of 125I-leptin to partially purified rat LSR multimeric complexes [2]: bound
Substance: leptin: plasma protein of 16 kDa produced by adipocytes; recombinant human or mouse leptin, species depends on the experiment
lipase activity released in serum after heparin injections [1]: did not significantly modify lipase activity | leptin concentration at which 125I-leptin degradation saturated [3]: ≥ 10 ng/mL | binding of chylomicrons to rat hepatocytes [4]: additive stimulatory effect
